# Data taken from patent US12018267B2, “Plants having increased tolerance to herbicides” (BASF SE, priority 2015, dated 2024).
# What was measured:
# [1] = system: O. sativa Volano-M3-CESA1 and CESA3 mutants; assay: Greenhouse foliar application, crop injury on tilled Rice M3 generation cellulose synthase mutants (Table E10-1); assay type: in vivo, Oryza sativa; details: foliar application 250 g ai/ha
# Description: Oryza sativa M2 Volano is a cellulose biosynthesis inhibitor susceptible rice risotto population that was subjected to sodium azide seed mutagenesis but was not tilled nor selected for CESA mutations. O. sativa Volano-M3-CESA1 and CESA3 mutants were selected from a subpopulation of O. sativa M2 Volano by sequencing CESA gene sequences in M2 plants and maintaining (producing seed through selfing) those individuals containing key mutations in these genes. The tolerance of the M3 CESA1 and CESA3 mutants was assessed using 6-(1-fluorocyclopentyl)-N2-(2,3,5,6-tetrafluorophenyl)-1,3,5-triazine-2,4-diamine, together with 1.0% DASH® EC adjuvant (BASF). The tolerance of M4 CESA1 and CESA3 mutants was assessed using 6-cyclopentyl-N4-(2,3,4,5,6-pentafluorophenyl)-1,3,5-triazine-2,4-diamine, together with 1.0% DASH® EC adjuvant (BASF).
# M3 seed, which were harvested from tilled and selected individuals containing mutations in the CESA1 and CESA3 genes, were grown in the greenhouse under natural light conditions supplemented with 400 W sodium halide lamps under a 16 hr day length. Day/night temperatures were 26 and 20° C., respectively. The number of M3 plants from each line varied between 2 and 16, depending on seed availability and germination. A non-selective CBI, azine 6-(1-fluorocyclopentyl)-N2-(2,3,5,6-tetrafluorophenyl)-1,3,5-triazine-2,4-diamine, formulated with 1.0% DASH in a water volume of 375 L/ha was applied early post-emergent (one to two leaf stage) at a rate of 250 g ai/ha to M3 CESA1 and CESA3 mutant rice plants growing in soil in the greenhouse. Only plants originating from lines having more than four seeds were subjected to herbicide treatment. CESA mutant lines with four or fewer seeds were selfed for an additional generation and then tested at the M4 generation with 6-cyclopentyl-N4-(2,3,4,5,6-pentafluorophenyl)-1,3,5-triazine-2,4-diamine. M4 plants were grown under similar conditions as M3 plants and treated with 250 g ai/ha or 500 g ai/ha of 6-cyclopentyl-N4-(2,3,4,5,6-pentafluorophenyl)-1,3,5-triazine-2,4-diamine. […] Plants without any symptoms were recorded as “0%” injury. Increasing levels of reduced leaf mass and reduced stalk stiffness, with respect to the untreated control plants, were recorded in the range of “1 to 49%” injury. Increasing levels of leaf abnormalities and leaf necrosis, along with increased levels of lodging, relative to the untreated control plants, were recorded in the range of “50 to 85%” injury. Dead or dying plants with necrosis of the apex and severe lodging were recorded between “86-100%”. Data on individual plants was assessed and recorded due to the low number of individuals per line and the fact that the CESA mutations in the M2 generation were heterozygous and therefore segregating at the M3 and M4 generations. […]
# [2] = system: transgenic Arabidopsis plants with wildtype or mutated cellulose synthase sequences (SEQ ID NO: 1 or 3); assay: 48-well plate growth inhibition of transgenic T2 Arabidopsis, relative tolerance rates versus non-transgenic (Table E2-1); assay type: in vivo, Arabidopsis thaliana; details: growth inhibition evaluated seven to ten days after seeding
# Description: For transformation of Arabidopsis thaliana, wildtype or mutated cellulose synthase sequences encoding for one of the following protein sequences SEQ ID NO: 1 or 3, are cloned with standard cloning techniques as described in Sambrook et al. (Molecular cloning (2001) Cold Spring Harbor Laboratory Press) in a binary vector containing resistance marker gene cassette (AHAS) and mutated cellulose synthase sequence (marked as GOI) in between ubiquitin promoter (PcUbi) and nopaline synthase terminator (NOS) sequence. Binary plasmids are introduced to Agrobacterium tumefaciens for plant transformation. Arabidopsis thaliana are transformed with wildtype or mutated cellulose synthase sequences by floral dip method as described by McElver and Singh (WO 2008/124495). Transgenic Arabidopsis plants are subjected to TaqMan analysis for analysis of the number of integration loci.
# Transgenic Arabidopsis thaliana plants (T2) are assayed for improved tolerance to azine herbicides like e. g. 6-cyclopentyl-N4-(2,3,4,5,6-pentafluorophenyl)-1,3,5-triazine-2,4-diamine in 48-well plates. Therefore, T2 seeds are surface sterilized by stirring for 5 min in ethanol+water (70+30 by volume), rinsing one time with ethanol+water (70+30 by volume) and two times with sterile, deionized water. The seeds are resuspended in 0.1% agar dissolved in water (w/v) Four to five seeds per well are plated on solid nutrient medium consisting of half-strength murashige skoog nutrient solution, pH 5.8 (Murashige and Skoog (1962) Physiologia Plantarum 15: 473-497). Compounds are dissolved in dimethylsulfoxid (DMSO) and added to the medium prior solidification (final DMSO concentration 0.1%). Multi well plates are incubated in a growth chamber at 22° C., 75% relative humidity and 110 μmol Phot*m^−2*s^−1 with 14:10 h light:dark photoperiod. Growth inhibition is evaluated seven to ten days after seeding in comparison to wild type plants. Tolerance factors are calculated based on IC50 values of growth inhibition of transformed versus non-transformed Arabidopsis plants.
Structure (SMILES),"Crop Injury Assessment (%) at 20 DAT ([1]; Rice M3 OsCESA1 A1066T (SEQ ID 51), parental plant Het) [%]","Crop Injury Assessment (%) at 20 DAT ([1]; Rice M3 OsCESA1 S827N (SEQ ID 51), parental plant Het) [%]","Crop Injury Assessment (%) at 20 DAT ([1]; Rice M3 OsCESA1 V9231 (SEQ ID 51), parental plant Het) [%]","Crop Injury Assessment (%) at 20 DAT ([1]; Rice M3 OsCESA3 V1022L (SEQ ID 55), parental plant Hom) [%]","Relative tolerance rate of transgenic Arabidopsis plants as compared to non-transgenic (non-transgenic = 1.0) ([2]; Construct AtCesA1_G1031R, SEQ ID 1, variant G1031R)","Relative tolerance rate of transgenic Arabidopsis plants as compared to non-transgenic (non-transgenic = 1.0) ([2]; Construct AtCesA1_L1011A, SEQ ID 1, variant L1011A)","Relative tolerance rate of transgenic Arabidopsis plants as compared to non-transgenic (non-transgenic = 1.0) ([2]; Construct AtCesA1_R292H, SEQ ID 1, variant R292H)","Relative tolerance rate of transgenic Arabidopsis plants as compared to non-transgenic (non-transgenic = 1.0) ([2]; Construct AtCesA1_V297M, SEQ ID 1, variant V297M)","Relative tolerance rate of transgenic Arabidopsis plants as compared to non-transgenic (non-transgenic = 1.0) ([2]; Construct AtCesA1_wt, SEQ ID 1, no variant)","Relative tolerance rate of transgenic Arabidopsis plants as compared to non-transgenic (non-transgenic = 1.0) ([2]; Construct AtCesA3_F1039L, SEQ ID 3, variant F1039L)","Relative tolerance rate of transgenic Arabidopsis plants as compared to non-transgenic (non-transgenic = 1.0) ([2]; Construct AtCesA3_wt, SEQ ID 3, no variant)"
"Nc1nc(Nc2c(F)c(F)cc(F)c2F)nc(C2(F)CCCC2)n1 [6-(1-fluorocyclopentyl)-N2-(2,3,5,6-tetrafluorophenyl)-1,3,5-triazine-2,4-diamine]",10,0,0,20,–,–,–,–,–,–,–
"Nc1nc(Nc2c(F)c(F)c(F)c(F)c2F)nc(C2CCCC2)n1 [6-cyclopentyl-N4-(2,3,4,5,6-pentafluorophenyl)-1,3,5-triazine-2,4-diamine]",–,–,–,–,7,3,3,1,1,3,1
